In data set [1] the target is T1, epoxide hydrolase (EH) (Homo sapiens, UniProt P07099).
T1 sequence (P07099 1-455): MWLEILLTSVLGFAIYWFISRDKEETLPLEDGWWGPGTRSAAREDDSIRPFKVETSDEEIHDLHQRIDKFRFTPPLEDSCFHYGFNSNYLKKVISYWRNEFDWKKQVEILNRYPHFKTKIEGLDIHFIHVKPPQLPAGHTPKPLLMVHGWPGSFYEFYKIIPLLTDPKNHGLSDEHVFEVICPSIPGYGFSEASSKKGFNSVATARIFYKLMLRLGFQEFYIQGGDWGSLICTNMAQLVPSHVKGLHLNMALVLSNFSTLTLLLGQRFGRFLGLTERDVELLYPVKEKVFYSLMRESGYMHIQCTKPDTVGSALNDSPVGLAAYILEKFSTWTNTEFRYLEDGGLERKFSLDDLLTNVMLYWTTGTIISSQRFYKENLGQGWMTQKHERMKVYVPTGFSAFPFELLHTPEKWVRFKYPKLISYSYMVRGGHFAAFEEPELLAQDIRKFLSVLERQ
The data set can be described thus: EO elimination in human liver microsomes. As to conditions: pooled native human liver microsomes, best fit (Berkeley Madonna).

For data set [2] the following is noted: rat; ref Dunkelberg, 1982; Garman et al., 1985; Snellings et al., 1984; cited from earlier work.
The test system of data set [3] is glutathione S-transferase (GST). In words: GST-mediated EO elimination in mouse liver cytosol. As to conditions: mouse pooled liver cytosol; taking a Km of 9 mmol/l. Type of data set: in vitro ADME, B6C3F1 mice.
In data set [4] the target is T2, epoxide hydrolase (EH) (Rattus norvegicus, UniProt P07687).
T2 sequence (P07687 1-455): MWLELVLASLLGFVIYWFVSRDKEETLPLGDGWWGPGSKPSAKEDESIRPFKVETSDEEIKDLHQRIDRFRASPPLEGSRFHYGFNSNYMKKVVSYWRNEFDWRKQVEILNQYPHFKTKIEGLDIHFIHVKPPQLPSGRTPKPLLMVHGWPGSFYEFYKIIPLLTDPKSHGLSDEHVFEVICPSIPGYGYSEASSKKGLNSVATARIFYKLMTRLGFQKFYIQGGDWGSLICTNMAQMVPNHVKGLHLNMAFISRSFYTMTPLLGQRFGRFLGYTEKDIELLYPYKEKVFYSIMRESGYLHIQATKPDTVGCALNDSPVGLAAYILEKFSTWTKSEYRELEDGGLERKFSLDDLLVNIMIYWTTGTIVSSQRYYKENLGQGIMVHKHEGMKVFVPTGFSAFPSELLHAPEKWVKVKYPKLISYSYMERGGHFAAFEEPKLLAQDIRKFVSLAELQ
In words: EO elimination in rat lung microsomes. The class given is in vitro ADME, Fischer 344 rats. The following applies: native pooled rat lung microsomes vs heat-inactivated, 5 mg protein/ml.

A short description of another data set: Spontaneous. The class given is physicochemical. The following applies: MgCl2 containing potassium phosphate buffer pH 7.4, 37°C.
For data set [5], the system named is glutathione S-transferase (GST). In words: GST-mediated EO elimination in mouse lung cytosol. Type of data set: in vitro ADME, B6C3F1 mice. The following applies: taking a Km of 9 mmol/l.
For data set [6] the following is noted: calculated from the data of ref Brown et al. (1996); cited from earlier work.
A further data set deals with CYP450. In words: EO incubation in pooled rat liver microsomes with NADPH-regenerating system. As to conditions: rat liver microsomal incubation with NADPH-regenerating system. Type of data set: in vitro ADME, Fischer 344 rats.
For data set [7], the system named is glutathione S-transferase (GST). The data set can be described thus: GST-mediated EO elimination in rat lung cytosol. The class given is in vitro ADME, Fischer 344 rats. The following applies: taking a Km of 9 mmol/l.
For another data set, the system named is GSH levels in the livers. As to conditions: Fischer rats exposed for 4 h to 1200 ppm EO; ref McKelvey and Zemaitis (1986); cited from earlier work.
Data set [8] deals with T2, epoxide hydrolase (EH). In words: EO elimination in rat liver microsomes. Type of data set: in vitro ADME, Fischer 344 rats. As to conditions: native pooled rat liver microsomes vs heat-inactivated, 5 mg protein/ml.
The conditions of data set [9]: humans; ref IARC (1994b); cited from earlier work.
For data set [10], the target named is T3, epoxide hydrolase (EH) (Mus musculus, UniProt Q9D379).
T3 sequence (Q9D379 1-455): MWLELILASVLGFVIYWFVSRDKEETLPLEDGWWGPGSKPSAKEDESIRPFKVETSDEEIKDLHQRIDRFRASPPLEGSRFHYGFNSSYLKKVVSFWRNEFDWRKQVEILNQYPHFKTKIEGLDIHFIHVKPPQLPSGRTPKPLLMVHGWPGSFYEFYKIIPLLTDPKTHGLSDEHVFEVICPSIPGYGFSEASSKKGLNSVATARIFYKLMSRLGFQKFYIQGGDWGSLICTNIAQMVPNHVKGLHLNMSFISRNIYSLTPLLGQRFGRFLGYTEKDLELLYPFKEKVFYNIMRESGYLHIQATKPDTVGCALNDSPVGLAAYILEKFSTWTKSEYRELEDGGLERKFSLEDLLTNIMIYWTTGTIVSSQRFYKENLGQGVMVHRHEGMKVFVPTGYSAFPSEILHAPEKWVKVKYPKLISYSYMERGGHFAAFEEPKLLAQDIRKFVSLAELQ
The data set can be described thus: EO elimination in mouse liver microsomes. Type of data set: in vitro ADME, B6C3F1 mice. As to conditions: native pooled mouse liver microsomes vs heat-inactivated, 5 mg protein/ml.

Data set [11] is described as follows: Nonenzymatic conjugation with GSH. The following applies: GSH 15 mmol/l, 37°C, pH 7.4. The class given is physicochemical.
The conditions of data set [12]: mouse; ref Dunkelberg, 1981; National Toxicology Program, 1987; cited from earlier work.
In data set [13] the test system is glutathione S-transferase (GST). In words: GST-mediated EO elimination in human liver cytosol. Type of data set: in vitro ADME. The following applies: human pooled liver cytosol; taking a Km of 9 mmol/l.
The test system is the same in data set [14]. The data set can be described thus: GST-mediated EO elimination in rat liver cytosol. As to conditions: rat pooled liver cytosol; taking a Km of 9 mmol/l. Type of data set: in vitro ADME, Fischer 344 rats.
In data set [15] the target is T3, epoxide hydrolase (EH). The data set can be described thus: EO elimination in mouse lung microsomes. Type of data set: in vitro ADME, B6C3F1 mice. The following applies: native pooled mouse lung microsomes vs heat-inactivated, 5 mg protein/ml.

“Also recorded” adds a separate entry of the source. Where two headings read alike, the source gives them in different places.

On to `C1CO1` [EO, ethylene oxide], for which the “Vmax of EO elimination” value at epoxide hydrolase (EH) [1] was determined as 14.35 nmol/min/mg protein. Also, the carcinogenicity result in data set [2] and in [12] was “carcinogenic” throughout. Besides, the “Vmax of GST-mediated GSH conjugation with EO” value was determined as 251 nmol/min/mg protein in data set [3]; 56.9 nmol/min/mg protein in [5]; 16.0 nmol/min/mg protein in [7]; 10.3 nmol/min/mg protein in data set [13]; 47.7 nmol/min/mg protein in data set [14]. Moreover, the “EH-catalyzed EO elimination” value on epoxide hydrolase (EH) [4] was “no EH-catalyzed EO elimination was found”; on epoxide hydrolase (EH) [8], “not detectable; also recorded: no EH-catalyzed EO elimination was found”; on epoxide hydrolase (EH) [10], “not detectable; also recorded: no EH-catalyzed EO elimination was found”; on epoxide hydrolase (EH) [15] it was “no EH-catalyzed EO elimination was found”. The “mean half-life of spontaneous hydrolysis” value in “Spontaneous” came out at 12.4 h. For the same molecule, the “rate constant of the spontaneous hydrolysis” value in the data set “Spontaneous” (mean ± SE, n = 36) was 0.00093 ± 7e-05 min⁻¹. The “rate constant of the nonenzymatic elimination” value in [6] is 0.001 min⁻¹. Also, in the data set with CYP450, the “CYP-mediated EO elimination” value is “no CYP-mediated EO elimination was detected”. The “GSH levels in the livers” value with GSH levels in the livers was “less than 20 % of the control value”. Besides, the IARC evaluation entry in data set [9] is “carcinogenic to humans”. The “mean half-life of nonenzymatic conjugation with GSH” value in data set [11] came out at 3.7 h.

(Values after paper PMC3179684 (Toxicological Sciences, 2011).)
